The text below walks through data of patent EP3444615A1, “METHODS AND COMPOSITIONS FOR DIAGNOSTIC EVALUATION AND THERAPEUTIC CORRECTION OF THE NO-HAEM SIGNALLING PATHWAY(S) IN ANIMALS AND HUMANS” (Freiberg Instruments GmbH, priority 2017, dated 2019).

In one assay the target is T1, isolated sGC (Bos taurus, UniProt P16068).
T1 construct: host or cells: bovine lung (from a cited title)
T1 sequence (P16068 1-619): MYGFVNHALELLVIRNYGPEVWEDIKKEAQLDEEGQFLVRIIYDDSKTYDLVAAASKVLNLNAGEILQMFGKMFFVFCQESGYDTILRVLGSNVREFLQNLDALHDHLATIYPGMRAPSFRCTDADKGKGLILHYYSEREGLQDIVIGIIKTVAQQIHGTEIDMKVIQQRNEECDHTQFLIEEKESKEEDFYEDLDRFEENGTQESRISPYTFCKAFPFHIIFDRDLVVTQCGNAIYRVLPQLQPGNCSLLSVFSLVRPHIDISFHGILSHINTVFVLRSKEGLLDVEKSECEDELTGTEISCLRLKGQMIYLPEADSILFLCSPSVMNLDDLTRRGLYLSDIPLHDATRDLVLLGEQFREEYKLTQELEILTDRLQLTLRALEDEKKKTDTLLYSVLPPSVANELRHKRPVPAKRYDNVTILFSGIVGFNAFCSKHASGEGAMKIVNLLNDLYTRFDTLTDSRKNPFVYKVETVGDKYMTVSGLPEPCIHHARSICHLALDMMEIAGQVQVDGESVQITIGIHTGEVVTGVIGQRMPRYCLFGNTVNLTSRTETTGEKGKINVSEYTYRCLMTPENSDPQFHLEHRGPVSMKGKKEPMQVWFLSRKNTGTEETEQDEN
T1 sequence (P19687 1-691 partner): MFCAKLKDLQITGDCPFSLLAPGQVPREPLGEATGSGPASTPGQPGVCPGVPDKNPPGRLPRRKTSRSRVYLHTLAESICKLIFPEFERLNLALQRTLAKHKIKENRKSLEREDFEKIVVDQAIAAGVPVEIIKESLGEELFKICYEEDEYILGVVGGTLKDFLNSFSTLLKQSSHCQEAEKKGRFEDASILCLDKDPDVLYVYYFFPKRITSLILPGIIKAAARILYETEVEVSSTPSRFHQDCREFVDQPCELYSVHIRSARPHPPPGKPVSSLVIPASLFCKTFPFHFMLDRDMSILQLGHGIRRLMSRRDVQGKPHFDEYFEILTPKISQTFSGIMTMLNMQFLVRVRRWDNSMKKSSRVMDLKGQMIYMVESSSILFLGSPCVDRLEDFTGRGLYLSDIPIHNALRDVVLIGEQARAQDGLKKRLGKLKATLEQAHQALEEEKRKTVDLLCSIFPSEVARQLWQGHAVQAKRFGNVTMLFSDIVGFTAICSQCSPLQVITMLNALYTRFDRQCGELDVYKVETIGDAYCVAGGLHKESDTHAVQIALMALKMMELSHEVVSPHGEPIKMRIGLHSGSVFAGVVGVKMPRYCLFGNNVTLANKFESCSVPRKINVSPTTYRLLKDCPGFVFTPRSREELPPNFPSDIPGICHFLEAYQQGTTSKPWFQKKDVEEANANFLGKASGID
To be noted: bare ferrohaem, in contrast to NO-ferrohaem; cited from earlier work.

Assay [1] deals with human platelet-rich plasma (PRP). Kind of assay: U46619-induced platelet aggregation in platelet-rich plasma (aggregometer). The format is cell-based. The procedure: Human venous blood was collected into a plastic polypropylene syringe containing sodium citrate. […] Platelet-rich-plasma (PRP) was prepared by centrifugation of the blood at 180g for 10 minutes at room temperature. The cloudy supernatant containing platelets was carefully removed with a pipette and transferred into a clean polypropylene tube and capped. Platelets were used for the experiments within 3 hr after blood collection. Platelet function studies were performed using a Dual Channel Aggregometer (Chronolog, Havertown). The PRP was adjusted to a platelet count of 200-300x 10^6/ml. Platelet aggregation was induced by the addition of a synthetic thromboxane A2 receptor agonist, U46619 (Cayman Chemical, Ann Arbor). PRP was placed in the aggregometer cuvette and continuously stirred at the rate of 1000 rpm. Platelet aggregation was determined by measuring the change in the optical density after addition of 1µM U46619. […]

Assay [2] relates to isolated rat mesenteric arteries. Kind of assay: vasodilation in isolated mesenteric arteries.
Another assay concerns anesthetized rats. The assay is described as follows: blood pressure after intravenous bolus injection. The class given is in vivo. The following applies: 10 nmol/kg.
The next assay has as its system mouse femoral artery. The assay is described as follows: isometric tension study, wire myograph, pre-contracted artery rings. To be noted: Fig. 7. On the procedure: For the pilot experiment a male Swiss mouse (35 g) was sacrificed under ether anaesthesia. Femoral artery was isolated and cleaned from the adhering fat and connective tissue. Artery rings (2 mm) with endothelium were mounted in the organ chambers filled with Krebs solution continuously bubbled with 95% 02/ 5% CO2 at 37°C. The composition of the solution was as following: 119 mM NaCl, 4.7 mM KCI, 14.9 mM NaHCO3, 1.2 mM MgSO4.7H2O, 2.5 mM CaCl2, 1.18 mM KH2PO4, and 5.5 mM glucose; pH 7.4. Vascular reactivity was measured by the monitoring the changes in isometric tension using a wire myograph (Danish Myo Technology, Arhus, Denmark). After pre-contraction of arterial rings with 1µM 5-HT (serotonin; Sigma-Aldrich), the cumulative concentrations of NO-ferrohaem were added. In the end of experiment, an inhibitor of the soluble guanylate cyclase (ODQ; 1µM) was added.

The next assay relates to anesthetized Wistar rat. Kind of assay: blood pressure study, subcutaneous injection. The class given is in vivo. The following applies: after injection of sGC inhibitor methylene blue; Fig. 8. On the procedure: For the pilot experiment, a male Wistar rat weighing 350g from Janvier Labs (Le Genest-Saint-Isle, France) was used. Rat was anaesthetised with isoflurane 1-2% (Baxter S.A.S, Maurepas, France) and analgesia was ensured by sufentanil (Mylan, Pittsburgh PA, USA) (0.1 µg/kg of body weight) administered subcutaneously. Animal was tracheotomised and lungs ventilated throughout the experiment. The ventilator (Harvard Rodent Ventilator 683, Harvard Instruments, South Natick, MA, USA) was set to maintain a PaCO2 of 40 mmHg and oxygen was added to maintain a PaO2 of 100 mmHg. The left femoral artery was used to measure mean arterial pressure (MAP) and heart rate (HR). The rectal temperature was continuously monitored. The NO-ferrohaem was injected at dose 2µmol/kg (s.c.) before and after the injection of methylene blue (1 µmol/kg; s.c.). In the end of experiment rat was euthanized using the lethal dose of Pentothal (100 mg/kg; i.v.).

As for `C=Cc1c(C)c2[n]3c1C=C1N=C(C=C4N=C(C=c5c(C)c(C=C)c([n]5[Fe]3)=C2)C(C)=C4CCC(=O)O)C(CCC(=O)O)=C1C` [ferrohaem], the “effect on basal activity of isolated sGC” value at isolated sGC is given as “inhibits the basal activity of isolated sGC”.

For the molecule `C=Cc1c(C)c2[n]3c1C=C1N=C(C=C4N=C(C=c5c(C)c(C=C)c([n]5[Fe]3[N]=O)=C2)C(C)=C4CCC(=O)O)C(CCC(=O)O)=C1C` [NO-ferrohaem, nitrosylated ferrous protoporphyrin IX], in assay [1] (1 nM, 10nM or 100nM added 30 seconds before 1µM U46619, Fig. 6), the U46619-induced platelet aggregation result is recorded as “concentration-dependently prevented the aggregation”. For the same molecule, the “inhibition of thromboxane-induced platelet aggregation” value in assay [1] (at low nM concentrations, human platelet-rich plasma) is given as “efficiently inhibits”. For the same molecule, the vasodilating activity entry in assay [2] was “direct long-lasting vasodilating activity”. For the same molecule, in the assay with anesthetized rats, the blood pressure effect entry was “sGC-inhibitor-sensitive hypotension”. Moreover, in the assay on mouse femoral artery (5-HT (1µM)-pre-contracted, 100nM-100µM concentration range), the “relaxation of pre-contracted arteries” value is listed as “concentration-dependent relaxation”. In addition, in the assay on mouse femoral artery (plus sGC inhibitor ODQ (1µM)), the “effect of ODQ on the NO-ferrohaem-induced relaxation” value is given as “completely reversed”. Also, the “effect of methylene blue on hypotensive activity” value with anesthetized Wistar rat is “prevented this NO-ferrohaem activity”.
